From the NIST ThermoML archive (doi:10.1016/j.jct.2008.12.011)

Assay: cn = amount concentration of the nth substance listed, in mol/dm3
Conditions: 101.3 kPa, Liquid, Vibrating tube method

[Cl-].[K+] [potassium chloride] + O
mass density [kg/m3]
Conditions | c1 = 1 | c1 = 1.5 | c1 = 2 | c1 = 2.5 | c1 = 3 | c1 = 3.5 | c1 = 4
298.15 K | – | 1059.97 | – | 1104.2 | 1124.93 | 1145.56 | –
303.15 K | 1041.13 | 1058.12 | 1080.38 | 1102.19 | 1122.78 | 1143.35 | 1166.67
308.15 K | 1038.43 | 1055.31 | 1077.43 | 1099.06 | 1119.56 | 1140.06 | 1163.34
313.15 K | 1035.01 | 1051.75 | 1073.77 | 1095.37 | 1115.79 | 1136.18 | 1159.35
318.15 K | 1032.69 | 1049.38 | 1071.35 | 1092.9 | 1113.28 | 1133.63 | 1156.76
323.15 K | 1030.24 | 1047.03 | 1068.81 | 1090.34 | 1110.71 | 1131.02 | 1154.1

CC(=O)[O-].[K+] [potassium ethanoate] + O
mass density [kg/m3]
Conditions | c1 = 1 | c1 = 1.5 | c1 = 2 | c1 = 2.5 | c1 = 3 | c1 = 3.5 | c1 = 4
298.15 K | – | 1066.61 | – | 1108.88 | 1127.48 | 1148.72 | –
303.15 K | 1041.9 | 1064.76 | 1086.01 | 1106.89 | 1125.37 | 1146.49 | 1168.58
308.15 K | 1039.27 | 1062.94 | 1083.09 | 1103.93 | 1122.15 | 1143.14 | 1165.13
313.15 K | 1035.88 | 1059.39 | 1079.44 | 1100.19 | 1118.3 | 1139.19 | 1160.96
318.15 K | 1033.57 | 1057.02 | 1077.01 | 1097.66 | 1115.71 | 1136.58 | 1158.26
323.15 K | 1030.82 | 1054.37 | 1074.47 | 1095.05 | 1113.05 | 1133.87 | 1155.47

[Cl-].[Na+] [sodium chloride] + O
mass density [kg/m3]
Conditions | c1 = 1 | c1 = 1.5 | c1 = 2 | c1 = 2.5 | c1 = 3 | c1 = 3.5 | c1 = 4
298.15 K | – | 1053.3 | – | 1088.97 | 1110.22 | 1124.82 | –
303.15 K | 1035.38 | 1055.01 | 1073.49 | 1086.83 | 1107.87 | 1122.4 | 1146.3
308.15 K | – | 1053.06 | 1070.4 | 1083.71 | 1104.62 | 1118.95 | 1142.7
313.15 K | 1029.13 | 1050.21 | 1066.6 | 1079.83 | 1100.67 | 1114.84 | 1138.45
318.15 K | 1026.75 | 1046.65 | 1064.11 | 1077.28 | 1098.06 | 1112.16 | 1135.7
323.15 K | 1023.15 | 1044.21 | 1061.5 | 1074.62 | 1095.35 | 1109.38 | 1132.89
